In assay [1] the test system is DU145 (an AR null human prostate cancer cell line). Nature of the assay: DU145 cell viability (CellTiterGLO). Type of assay: cell-based. The conditions noted are these: 10 μM, full serum containing media. How it is done: DU145 cells were cultured in full serum containing media with 10 uM of the indicated antiandrogens. CellTiterGLO assay was performed on days 0, 3, and 6 to determine cell viability. RLU=relative light units.
On the technique in general: Cellular ATP, detected with luciferase, serves as a proxy for viable cell number.

For assay [2], the system named is VCaP cells expressing AR WT and AR F876L. Nature of the assay: Western blot of AR signaling and PARP cleavage in VCaP cells. The format is cell-based, human. The conditions noted are these: 10 μM, 4 days, media containing FBS. How it is done: Fetal bovine serum (FBS) and charcoal-stripped, dextran-treated fetal bovine serum (CSS) were purchased from Omega Scientific. […] Serial dilutions of all drugs were made using DMSO. Antibodies used for immunoblot assays were b-actin (AC-15, Sigma) PARP (#9543; Cell Signaling Technology), FKBP5 (IHC-00289, Bethyl), b-tubulin (D-10) and androgen receptor (N-20) (both from Santa Cruz Biotechnology). Protein lysates were prepared in M-PER protein extraction reagent (Pierce) or 1% SDS buffer. The chromatin immunoprecipitation assay was conducted using a kit (Upstate) with an antibody for androgen receptor (PG-21, Upstate). Nontarget and mouse AR siRNA pools were from the ON-TARGETplus collection (Dharmacon).
Background: A western blot detects proteins with antibodies after separation by electrophoresis.

In a further assay the target is T1, AR WT (Homo sapiens, UniProt P10275, DEL79-80/DUP473-473).
T1 construct: expressed in transfected cells; host or cells: LNCaP-Pb.PSE.EGFP (pantropic retroviral infection, blasticidin selection)
T1 sequence (P10275 with tags, fused parts or gaps DEL79-80/DUP473-473): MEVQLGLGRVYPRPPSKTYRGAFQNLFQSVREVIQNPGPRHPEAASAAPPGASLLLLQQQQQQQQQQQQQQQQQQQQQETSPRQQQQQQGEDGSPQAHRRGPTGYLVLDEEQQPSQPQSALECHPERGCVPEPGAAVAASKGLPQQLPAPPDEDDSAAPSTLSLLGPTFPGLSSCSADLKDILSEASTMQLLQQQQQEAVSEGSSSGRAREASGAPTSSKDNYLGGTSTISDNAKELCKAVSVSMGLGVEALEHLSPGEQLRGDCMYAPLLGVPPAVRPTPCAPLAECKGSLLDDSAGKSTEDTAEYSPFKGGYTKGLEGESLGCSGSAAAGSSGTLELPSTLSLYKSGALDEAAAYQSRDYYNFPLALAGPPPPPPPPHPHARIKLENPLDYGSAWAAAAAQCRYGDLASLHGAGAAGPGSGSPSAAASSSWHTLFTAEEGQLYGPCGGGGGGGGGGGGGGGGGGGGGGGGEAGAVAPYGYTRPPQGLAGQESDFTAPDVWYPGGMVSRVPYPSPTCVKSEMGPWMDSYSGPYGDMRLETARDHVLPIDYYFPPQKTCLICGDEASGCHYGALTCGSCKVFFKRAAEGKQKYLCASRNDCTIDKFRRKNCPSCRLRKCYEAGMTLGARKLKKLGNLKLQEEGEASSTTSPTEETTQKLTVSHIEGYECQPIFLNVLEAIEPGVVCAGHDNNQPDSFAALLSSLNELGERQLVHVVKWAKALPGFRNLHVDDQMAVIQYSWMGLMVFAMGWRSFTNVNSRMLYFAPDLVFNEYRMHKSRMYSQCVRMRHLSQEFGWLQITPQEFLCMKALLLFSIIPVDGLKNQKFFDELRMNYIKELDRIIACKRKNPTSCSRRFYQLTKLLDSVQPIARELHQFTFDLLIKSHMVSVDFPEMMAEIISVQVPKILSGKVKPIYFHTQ
Nature of the assay: EGFP reporter assay of AR activity, LNCaP-Pb.PSE.EGFP cells, flow cytometry. The note with it: 10 μM, 4 days of treatment. Type of assay: cell-based. The text has this:
(§1) This clone was used for all flow cytometry assays and for the FACS-based resistance screens.
(In a reporter assay the amount or activity of a reporter protein is the signal.)

A further assay concerns the target T2, AR F876L (Homo sapiens, UniProt P10275, DEL79-80/DUP473-473/F877L).
T2 construct: expressed in transfected cells
T2 sequence (P10275 with tags, fused parts or gaps DEL79-80/DUP473-473/F877L): T1 sequence (P10275 with tags, fused parts or gaps DEL79-80/DUP473-473) with F876L
The assay is described as above. Type of assay: cell-based. The note with it: 10 μM, 4 days of treatment.
Text: as §1

Assay [3] deals with VCaP cells overexpressing AR WT. Kind of assay: VCaP growth assay (CellTiter-GLO). Type of assay: cell-based, human. The note with it: full-serum containing media, 10 μM.
The subject of assay [4] is CWR22PC cells expressing AR WT. Kind of assay: CWR22PC cell viability (CellTiterGLO). Type of assay: cell-based, human. The note with it: full serum media; days 1, 4, and 7. As to the method: […]. […] CellTiterGLO assay was performed on days 1, 4, and 7 to measure cell viability. […] CellTiterGLO assay was performed on days 1, 4, and 7 to measure cell viability.
[…]. […] CellTiterGLO assay was performed on days 1, 4, and 7 to determine cell viability. RLU=relative light units.

For assay [5], the system named is CWR22PC cells expressing AR F876L. Nature of the assay: CWR22PC cell viability (CellTiterGLO). Type of assay: cell-based, human. The note with it: full serum media; days 1, 4, and 7. How it is done: CellTiterGLO assay was performed on days 1, 4, and 7 to measure cell viability. […] CellTiterGLO assay was performed on days 1, 4, and 7 to measure cell viability.
CellTiterGLO assay was performed on days 1, 4, and 7 to determine cell viability. RLU=relative light units.

Assay [6] deals with VCaP cells overexpressing AR F876L. Kind of assay: VCaP growth assay (CellTiter-GLO). The format is cell-based, human. The conditions noted are these: full-serum containing media, 10 μM.

Changes are numbered by the printed parent chain. Entries after “also recorded” stand apart in the source; their conditions may differ.

Turning to `CNC(=O)c1ccc(N2C(=S)N(c3ccc(C#N)c(C(F)(F)F)c3)C(=O)C23CCCC(C)(C)C3)cc1F` (racemic) [(±)-DR103, 4-(3-(4-cyano-3-(trifluoromethyl)phenyl)-7,7-dimethyl-4-oxo-2-thioxo-1,3-diazaspiro[4.5]decan-1-yl)-2-fluoro-N-methylbenzamide], the “Proliferation of DU145 cells” value is on record as “did not impact the proliferation” in assay [1] (listed as (+)-DR103) and “no significant growth inhibition” in assay [1] (listed as DR103). Also, the figures for the “Endogenous AR signaling (Western blot)” value in assay [2] and in assay [2] (listed as DR103) were “inhibited endogenous AR signaling” and “efficiently inhibits AR signaling”, respectively. Further, the “PARP cleavage (Western blot)” value in assay [2] is recorded as “induced PARP cleavage”; in assay [2] (listed as DR103), “induces PARP cleavage”. In addition, the “Effect on transcriptional activity of AR WT in EGFP reporter assay (agonism or antagonism)” value on AR WT is recorded as “effectively antagonized”. Further, the “Effect on transcriptional activity of AR F876L in EGFP reporter assay (agonism or antagonism)” value at AR F876L is listed as “effectively antagonized; also recorded: potently inhibited”. Moreover, the “Growth of VCaP cells, AR WT” value was “inhibited the growth” in assay [3] and “effectively inhibits the growth of both models” in assay [3] (listed as (+)-DR103). Further, the “Growth/viability of CWR22PC cells, AR WT” value in assay [4] was “growth inhibition”. Besides, the “Growth/viability of CWR22PC cells expressing AR F876L” value in assay [5] was “growth inhibition”. For the same molecule, the “Growth of VCaP cells overexpressing AR F876L” value in assay [6] was “inhibited the growth”; in assay [6] (listed as (+)-DR103) it was “effectively inhibits the growth of both models”.

(Values after patent US10206911B2, “Androgen receptor variants and methods for making and using” (MEMORIAL SLOAN-KETTERING CANCER CENTER, priority 2012, dated 2019).)
